From ChEMBL document CHEMBL1201862, “PubChem BioAssay data set” (2004)
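Method: 48-hour compound exposure of cells in 96-well plates, five concentrations, linear interpolation of endpoints. GI50: concentration for 50% inhibition of growth.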 Active and inactive are the calls of the source. No stated cut-off is given here; in the data, active = GI50 up to about 1.1 µM and inactive = higher.

How the values were obtained:
Experiment in all cases: NCI tumour cell line growth inhibition, 48 h
CCRF-CEM = tested on: CCRF-CEM
RXF 393 = tested on: RXF 393
K562 = tested on: K562
HOP-92 = tested on: HOP-92
KM12 = tested on: KM12
SF-268 = tested on: SF-268
HL-60 = tested on: HL-60
SNB-19 = tested on: SNB-19
OVCAR-4 = tested on: OVCAR-4
LXFL 529 = tested on: LXFL 529
OVCAR-8 = tested on: OVCAR-8
SN12C = tested on: SN12C
NCI-H522 = tested on: NCI-H522
DMS-273 = tested on: DMS-273
IGROV-1 = tested on: IGROV-1
HCC 2998 = tested on: HCC 2998
RPMI-8226 = tested on: RPMI-8226
ACHN = tested on: ACHN
DLD-1 = tested on: DLD-1
SF-295 = tested on: SF-295
TK-10 = tested on: TK-10
Malme-3M = tested on: Malme-3M
EKVX = tested on: EKVX
786-0 = tested on: 786-0
HOP-62 = tested on: HOP-62
SNB-75 = tested on: SNB-75
SK-MEL-28 = tested on: SK-MEL-28
SK-MEL-2 = tested on: SK-MEL-2
NCI-H460 = tested on: NCI-H460
SW-620 = tested on: SW-620
HCT-15 = tested on: HCT-15
NCI-H23 = tested on: NCI-H23
M19-MEL = tested on: M19-MEL
KM-20L2 = tested on: KM-20L2
OVCAR-3 = tested on: OVCAR-3
SK-OV-3 = tested on: SK-OV-3
UACC-62 = tested on: UACC-62
UO-31 = tested on: UO-31
UACC-257 = tested on: UACC-257
XF498 = tested on: XF498
LOX IMVI = tested on: LOX IMVI
SNB-78 = tested on: SNB-78
M14 = tested on: M14
HT-29 = tested on: HT-29
DMS-114 = tested on: DMS-114
OVCAR-5 = tested on: OVCAR-5
CAKI-1 = tested on: CAKI-1
A549 = tested on: A549
SK-MEL-5 = tested on: SK-MEL-5
COLO 205 = tested on: COLO 205
MOLT-4 = tested on: MOLT-4

With `O=C(c1ccccc1)c1oc2ccc(Br)cc2c1-c1cnn(-c2ccccc2)c1` the GI50 (CCRF-CEM) was > 100 µM (inactive), the GI50 (RXF 393) was > 100 µM (inactive) and the GI50 (K562) was > 100 µM (inactive). The GI50 (HOP-92) was > 100 µM (inactive), the GI50 (KM12) was > 100 µM (inactive) and the GI50 (SF-268) was > 100 µM (inactive). The GI50 (HL-60) was > 100 µM (inactive), the GI50 (SNB-19) was > 100 µM (inactive) and the GI50 (OVCAR-4) was > 100 µM (inactive). The GI50 (LXFL 529) was > 100 µM (inactive), the GI50 (OVCAR-8) was > 10 µM (inactive) and the GI50 (SN12C) was > 100 µM (inactive). For the same compound, the GI50 (NCI-H522) was 7.48 µM (inactive), the GI50 (DMS-273) was > 100 µM (inactive) and the GI50 (IGROV-1) was > 100 µM (inactive). For the same compound, the GI50 (HCC 2998) was > 100 µM (inactive), the GI50 (RPMI-8226) was 54.7 µM (inactive) and the GI50 (ACHN) was > 100 µM (inactive). For the same compound, the GI50 (DLD-1) was > 100 µM (inactive), the GI50 (SF-295) was > 100 µM (inactive) and the GI50 (TK-10) was > 10 µM (inactive). The GI50 (Malme-3M) was > 100 µM (inactive), the GI50 (EKVX) was > 10 µM (inactive) and the GI50 (786-0) was > 100 µM (inactive). The GI50 (HOP-62) was > 100 µM (inactive), the GI50 (SNB-75) was > 100 µM (inactive) and the GI50 (SK-MEL-28) was > 100 µM (inactive). For the same compound, the GI50 (SK-MEL-2) was > 100 µM (inactive), the GI50 (NCI-H460) was > 100 µM (inactive) and the GI50 (SW-620) was > 10 µM (inactive). For the same compound, the GI50 (HCT-15) was greater than 100 µM, the GI50 (NCI-H23) was > 100 µM (inactive) and the GI50 (M19-MEL) was > 100 µM (inactive). For the same compound, the GI50 (KM-20L2) was > 100 µM (inactive), the GI50 (OVCAR-3) was > 100 µM (inactive) and the GI50 (SK-OV-3) was > 100 µM (inactive). For the same compound, the GI50 (UACC-62) was > 100 µM (inactive), the GI50 (UO-31) was > 100 µM (inactive) and the GI50 (UACC-257) was > 100 µM (inactive). The GI50 (XF498) was > 100 µM (inactive), the GI50 (LOX IMVI) was > 100 µM (inactive) and the GI50 (SNB-78) was > 100 µM (inactive). For the same compound, the GI50 (M14) was > 100 µM (inactive), the GI50 (HT-29) was > 100 µM (inactive) and the GI50 (DMS-114) was > 100 µM (inactive). For the same compound, the GI50 (OVCAR-5) was > 100 µM (inactive), the GI50 (CAKI-1) was > 100 µM (inactive) and the GI50 (A549) was > 10 µM (inactive). The GI50 (SK-MEL-5) was > 10 µM (inactive), the GI50 (COLO 205) was > 100 µM (inactive) and the GI50 (MOLT-4) was > 100 µM (inactive).
